{
  "source": "patent US20170049739A1",
  "about": "“PROSTACYCLIN COMPOUNDS, COMPOSITIONS AND METHODS OF USE THEREOF” (INSMED INCORPORATED, priority 2013, published 2017)",
  "key": {"[1]": {"assay": "Treprostinil alkyl ester conversion to treprostinil in dog lung tissue homogenate", "assay_type": "in vitro ADME", "settings": "37° C., 200 nM, 10 mg/mL of protein, 4 hours", "method": "(§1) Treprostinil alkyl ester conversion to treprostinil was also measured in the presence of rat, dog and monkey lung tissue homogenate at 37° C. Mere, data were calculated based on fit of exponential increase to the maximum (experiments performed in duplicate). The results of this study are provided below in Table 2A and FIG. 37. […] Both FIG. 37 experiments (left and right graphs) were performed in duplicate and the lines represent nonlinear exponential regression assuming 1 phase decay."}, "[2]": {"assay": "Treprostinil alkyl ester conversion to treprostinil in rat lung tissue homogenate", "assay_type": "in vitro ADME", "settings": "37° C., 200 nM, 10 mg/mL of protein, 4 hours", "method": "as §1"}, "NR8383 cells": {"system": "NR8383 cells", "assay": "NR8383 cell proliferation assay", "assay_type": "cell-based, rat", "settings": "unformulated alkyl esters, 0.195 μM-25 μM, 72 hour incubation", "method": "Rat alveolar NR8383 cells were harvested when the monolayer was 50-90% confluent (use passage 5-11). Because the NR8383 cells include both adherent and non-adherent cells, media was transferred to a 50 mL Falcon tube. To obtain the cells remaining in the flask, 2 mL of plain media was added, and the remaining cells were scraped out of the 75 cm^2 flask with a cell scraper and added to the 50 mL tube. […] SH30071.03) […] Technologies, cat #: 15410-122)). Cell number was determined using a hemacytometer. […] Measurements and calculations were made as described above for the CHO-K1 cells."}, "CHO-K1 cells": {"system": "CHO-K1 cells", "assay": "CHO-K1 cell proliferation assay", "settings": "unformulated alkyl esters, 0.195 μM-25 μM, 48 hour incubation", "method": "CHG-K1 cells were harvested when the cell monolayer was 50-90% confluent (use passage 4-11). Media was aspirated out of the flask, and cells were rinsed with 2 mL of F12 media. Next, 1 mL of pre-warmed (37° C.) 0.25%o trypsin-EDTA (Life Technologies, Cat#: 25300054) was added, and cells were dislodged from the flask by tapping it on the side. Complete growth media (F12 (Life Technologies, Cat #: 31765092) +10%FBS (Hyclone, Cat #: SH30071.03)+1× Pen-Strep (Life Technologies, cat #15140-122) was then added at a volume of 10 mL. Cells were eentrifuged at 250×g for 5 minutes at room temperature, and the media was aspirated. The cell pellet was resuspended in 10 ml. complete growth media. Cell number was determined using a hemacytometer. Ceils were then seeded at 2000 cells per well of a 96-well plate in 100 μL of complete growth media. The plate was incubated overnight at 37° C. and 5% CO2 in a water-jacketed incubator.\nThe next day, 80 μL of fresh complete media was added to each well, and CHO—K1 cells were challenged with treprostinil compound and composition treatments. The working solutions were prepared at 10× concentration, and following 2 fold serial dilutions, 20 μL aliquots were added per well to arrive at a final 1× concentration. Following a 48 hour incubation at 37° C. and 5% CO2 in a water-jacketed incubator, the inhibitory effect on cell proliferation was determined. Plates were analyzed using 20 μL of Presto Blue reagent (Life Technologies, cat #: A13262) per well. The reagent was mixed, and plates were incubated for 1 hour at 37° C. and 5% CO2 in a water-jacketed incubator. Plates were read using either a CytoFluor Series 4000 (PerSeptive BioSystems) or Synergy Neo microplate reader (BioTek) with emission λ: 590 nm and excitation λ: 560 nm.\nFollowing a 48 hour incubation period, the inhibitory effect of the treprostinil derivative compositions on cell proliferation was determined.\nCHO—K1 cells were challenged with treprostinil alkyl esters, i.e., TR compounds of Formula (A), having the following R2 groups: • C2, C3, C4, C5, C6, C8, C10 or C12 straight chain alkyl, at dosages ranging from 0.098 μM to 25 μM, Following a 48 hour incubation period, the inhibitory effect on cell proliferation was determined.\nFollowing a 72 hour incubation period, the inhibitory effect on cell proliferation was determined. Following a 48 hour incubation period, the inhibitory effect on cell proliferation was determined.\nSimilarly, CHG-K1 cells were challenged with the treprostinil compositions T612 (R2═C2), T613 (R2═C8) at concentrations ranging from 1.41 μM to 180 μM."}, "[3]": {"assay": "Treprostinil alkyl ester conversion to treprostinil in monkey lung tissue homogenate", "assay_type": "in vitro ADME", "settings": "37° C., 200 nM, 10 mg/mL of protein, 4 hours", "method": "as §1"}},
  "data": [
    {"smiles": "CCCCCCCCCCCCOC(=O)COc1cccc2c1C[C@H]1C[C@@H](O)[C@H](CC[C@@H](O)CCCCC)[C@H]1C2", "note": "[C12-TR, dodecyl-treprostinil]", "values": [
      {"measurement": "Rate of treprostinil alkyl ester conversion", "setting": "[1]", "value": "2.2 nmOL/h * g of protein"},
      {"measurement": "Rate of treprostinil alkyl ester conversion", "setting": "[2]", "value": "1.1 nmOL/h * g of protein"},
      {"measurement": "Effect on cell proliferation", "setting": "NR8383 cells", "value": "No detectable cell inhibition"},
      {"measurement": "Effect on cell proliferation: concentration with detectable inhibition", "setting": "CHO-K1 cells", "value": "No detectable cell inhibition"},
      {"measurement": "Rate of treprostinil alkyl ester conversion", "setting": "[3]", "value": "0.6 nmOL/h * g of protein"}
    ]}
  ]
}
